Experimental data: BindingDB's records for doi:10.1016/j.bmcl.2005.01.004 (Wyeth-Ayerst Research, 2005)

Target: Proto-oncogene tyrosine-protein kinase Src (Homo sapiens, UniProt P12931)
Assay: Homogeneous Time-resolved Fluorescence (HTRF) Assay
Description: Kinase assays were performed using the europium/APC detection format (LANCE, Perkin Elmer). HTRF is based on the proximity of europium cryptate (donor fluorophore)-labeled antiphosphotyrosine and streptavidin labeled with APC(allophycocyanin), which have been brought together by a binding reaction.

Chain of Proto-oncogene tyrosine-protein kinase Src (P12931 2-536 limits assumed): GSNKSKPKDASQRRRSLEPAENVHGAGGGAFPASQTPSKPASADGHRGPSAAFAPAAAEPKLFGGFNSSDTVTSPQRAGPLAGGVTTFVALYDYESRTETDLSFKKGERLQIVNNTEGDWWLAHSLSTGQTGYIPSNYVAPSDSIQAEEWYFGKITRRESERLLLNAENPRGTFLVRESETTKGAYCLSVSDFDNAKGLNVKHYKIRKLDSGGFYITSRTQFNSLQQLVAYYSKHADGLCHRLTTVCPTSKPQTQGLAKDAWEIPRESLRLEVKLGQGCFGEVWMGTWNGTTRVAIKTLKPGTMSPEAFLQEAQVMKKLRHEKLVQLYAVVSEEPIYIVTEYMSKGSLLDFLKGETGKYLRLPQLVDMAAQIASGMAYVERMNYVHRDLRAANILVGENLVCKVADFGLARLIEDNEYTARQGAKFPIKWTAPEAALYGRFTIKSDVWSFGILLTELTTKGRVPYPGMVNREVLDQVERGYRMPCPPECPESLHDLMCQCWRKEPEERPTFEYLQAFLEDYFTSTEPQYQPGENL

| SMILES | IC50 [nM] |
| --- | --- |
| COc1cc2c(Nc3cc(OC)c(OC)c(OC)c3)c(C#N)cnc2cc1/C=C/c1cc[n+]([O-])cc1 [4-[(E)-2-{3-cyano-6-methoxy-4-[(3,4,5-trimethoxyphenyl)amino]quinolin-7-yl}ethenyl]-1-oxidopyridin-1-ium] | 11 |
| N#Cc1cnc2cc(/C=C/c3ccncc3)ccc2c1NCc1cc(Cl)cc(Cl)c1 [4-{[(3,5-dichlorophenyl)methyl]amino}-7-[(E)-2-(pyridin-4-yl)ethenyl]quinoline-3-carbonitrile] | 1000 |
